In patent publication US12514843B2, “Biofilm disruption” (QBIOTICS PTY LTD, priority 2019, dated 2026):
Converted amounts (≈) assume the structure as drawn.

Tests used:
E. coli IR57 biofilm = experiment: Multiple particle tracking (MPT) of 200 nm FluoSpheres in established biofilm; format: cell-based, Escherichia coli
Description: The effect of three epoxytiglienones (Compounds 1, 4 and 6) on the assembly and permeability of established biofilms of E. coli was assessed using multiple particle tracking (MPT). MPT is a recently described technique, allowing simultaneous tracking of micron-size particles through biofilms using microscopy, from which the diffusion-based parameters of embedded particles within the extracellular polymeric matrix (EPS) of the biofilm can be determined (Cao et al. 2016). MPT measurements also allows for calculation of micro-rheological properties of the biofilm structure following treatment with test compounds.
E. coli biofilms were established and epoxytiglienone and control treatments applied as described in Example 2 above. Twenty-four hours after application of the treatments, the biofilms were stained with SYTO9® and 0.0025% of negatively-charged, carboxylate-modified FluoSpheres® (200 nm) added onto the biofilms and incubated for a further 2 hours. FluoSphere® particle movements within the biofilms were then captured on video using epifluorescence microscopy with a high frame-rate camera (33 ms). Particle trajectories were tracked using ImageJ softwaren (Mosaic) before calculation of three parameters of the 200 nm FluoSphere® particles: (i) ensemble diffusion coefficient (Deff), (ii) ensemble mean squared displacement (MSD) and (iii) creep compliance (a measure of resistance to mechanical deformation derived from the MSD vs lag time). Each treatment was replicated three times.

Streptococcus pyogenes = experiment: Minimum inhibitory concentration (MIC) assay, planktonic culture, broth dilution; format: cell-based; set-up: key: C = confluent growth, i.e. no MIC could be determined at any concentration tested; settings: S. pyogenes, planktonic culture in Mueller-Hinton broth; mean of three replicate tests
Description: (§1) The effects of five epoxytiglienones (Compounds 1, 2, 3, 4 and 6) and two comparator comparator compounds (epoxytiglienones having longer carbon chains at the C12 position) on six human pathogenic bacteria (two Gram-positive and four Gram-negative species) were measured in conventional planktonic culture systems. A minimum inhibitory concentrations (MIC) assay (the standard assay employed to define and quantify antibiotic activity) was performed to determine antibacterial activity for each epoxytiglienone against each bacterial strain.
(§2) The Gram-positive bacteria used in this study were methicillin resistant Staphylococcus aureus (MRSA) 1004A and Streptococcus pyogenes. The Gram-negative bacteria used in this study were Pseudomonas aeruginosa PAO1, Escherichia coli IR57 (V7), Klebsiella pneumoniae, and Acinetobacter baumannii 7789 (V19). MIC assays were performed on planktonic cultures of each bacteria grown in Mueller-Hinton broth using the standard broth dilution method described by Jorgensen et al. (1999) using epoxytiglienones dissolved in ethanol.

Klebsiella pneumoniae = experiment: as above; format: cell-based; set-up: key: C = confluent growth, i.e. no MIC could be determined at any concentration tested; settings: K. pneumoniae, planktonic culture in Mueller-Hinton broth; mean of three replicate tests
Description: as §1, §2

[1] = tested on: Acinetobacter baumannii 7789 (V19); experiment: as above; format: cell-based; set-up: key: C = confluent growth, i.e. no MIC could be determined at any concentration tested; settings: A. baumannii, planktonic culture in Mueller-Hinton broth; mean of three replicate tests
Description: as §1, §2

[2] = tested on: methicillin resistant Staphylococcus aureus (MRSA) 1004A; experiment: as above; format: cell-based; set-up: key: C = confluent growth, i.e. no MIC could be determined at any concentration tested; settings: S. aureus, planktonic culture in Mueller-Hinton broth; mean of three replicate tests
Description: as §1, §2

[3] = tested on: Pseudomonas aeruginosa PAO1; experiment: as above; format: cell-based; set-up: key: C = confluent growth, i.e. no MIC could be determined at any concentration tested; settings: P. aeruginosa, planktonic culture in Mueller-Hinton broth; mean of three replicate tests
Description: as §1, §2

[4] = tested on: Escherichia coli IR57 (V7); experiment: as above; format: cell-based; set-up: key: C = confluent growth, i.e. no MIC could be determined at any concentration tested; settings: E. coli, planktonic culture in Mueller-Hinton broth; mean of three replicate tests
Description: as §1, §2

[5] = tested on: isolated human neutrophils; experiment: LL-37 release from neutrophils, ELISA; format: cell-based; settings: 3 hours after treatment, 62.5, 125, 250 and 500 μM
Description: For these assays, neutrophils were isolated from fresh blood of a healthy human donor by lysis of a red blood cell pellet that had been obtained by Ficoll-Paque sedimentation. The neutrophils (˜4×10^6 cells/mL) were incubated with 10 μg/mL dihydroethidium (DHE) (Sigma-Aldrich) in complete culture medium at 37° C. for 15 min alongside an aliquot of unstained cells to be tested as unstained control.
To examine antimicrobial peptide release by neutrophils in response to treatment with Compound 4, isolated neutrophils were incubated with either vehicle or Compound 4 at the four concentrations (62.5, 125, 250 and 500 μM). At 3 h, cell culture supernatants were removed and tested for LL-37 content using a LL-37-directed ELISA kit (Hycult Biotech). ELISA readings were normalised to vehicle only controls to determine fold increases in LL-37 release.

[6] = tested on: A. baumannii 7789 biofilm; experiment: Disruption of established in vitro biofilm, CLSM with COMSTAT image analysis; format: cell-based, Acinetobacter baumannii; settings: 256 μg/mL
Description: Biofilms of E. coli IR57 were grown on 96-well glass-bottomed plates in Mueller-Hinton (MH) broth for 24 h, before 50% of the supernatant was replaced with fresh MH broth with or without the epoxytiglienone compound added to a final concentration of 256 μg/mL (vehicle is ethanol). An ethanol equivalent blank was used as a further control treatment. The plates were then incubated for a further 24 h at 37° C.
Confocal laser scanning microscopy (CLSM) was then used to image the biofilms, following staining with Live/Dead® Baclight stain with phosphate buffered saline (PBS) added to each well before imaging with z-stack CLSM. The resultant images were analysed by COMSTAT software to produce measurements of (i) biofilm biomass volume or bio-volume (μm^3/μm^2) and (ii) DEAD/LIVE bacterial ratio.
The effects of the epoxytiglienones (Compounds 1, 4, 6 and the comparator compound CC-1) on disruption of established in vitro biofilms were further investigated with two other species of Gram-negative bacteria (Pseudomonas aeruginosa PA01 and Acinetobacter baumannii 7789) using methods described in Example 2 above. Cell permeabilisation following Compound 1, 4 and 6 treatment was also determined using SYTOX™ Green Nucleic Acid Stain with untreated control and positive control of 70% isopropanol.

`CCCCCC(=O)OC1C(C)C2(O)C(C3OC3(CO)C(O)C3(O)C(=O)C(C)=CC32)C2C(C)(C)C12OC(=O)CCCCC` (stereo not drawn) [Compound 4, 12,13-dihexanoyl-6,7-epoxy-4,5,9,12,13,20-hexahydroxy-1-tiglien-3-one] was tested, and the “Diffusion coefficient (Deff) ± standard deviation” value (E. coli IR57 biofilm; 200 nm negatively-charged carboxylate-modified FluoSpheres in E. coli IR57 biofilms, 256 μg/mL, 24 h treatment) was 0.8449 ± 0.1250 cm^2 · s^−1 × 10^−9, the “mean squared displacement (MSD) of FluoSphere particles” value (E. coli IR57 biofilm; E. coli IR57 biofilm, 200 nm FluoSpheres, vs untreated and ethanol blank controls) was “substantially higher” and the biofilm creep compliance (E. coli IR57 biofilm; E. coli IR57 biofilm, derived from MSD vs lag time, vs untreated and ethanol blank controls) was “increased”. The Minimum inhibitory concentrations (Streptococcus pyogenes) was 256 µg/mL (≈ 432 µM), the Minimum inhibitory concentrations (Klebsiella pneumoniae) was “C” and the Minimum inhibitory concentrations [1] was “C”. For the same compound, the Minimum inhibitory concentrations [2] was 512 µg/mL (≈ 864 µM), the Minimum inhibitory concentrations [3] was “C” and the Minimum inhibitory concentrations [4] was “C”. The “Release of LL-37 from neutrophils” value [5] was “increased in a concentration dependent manner”, the DEAD/LIVE bacterial ratio ([6]; vs untreated and ethanol blank controls) was “no significant differences” and the “biofilm bio-volume (COMSTAT)” value ([6]; vs untreated and ethanol blank controls (p<0.05)) was “significant reductions”.
